Results taken from US8952024B2, “Herbicidal pyrimidone derivatives” (E I du Pont de Nemours and Company, priority 2009, dated 2015).

How the values were obtained:
Test in all cases: Test B pre-/postemergence plant response
Format in all cases: in vivo
[1] = tested on: downy bromegrass (Bromus tectorum)
Source text: (§1) Seeds of plant species selected from blackgrass (Alopecurus myosuroides), downy bromegrass (Bromus tectorum), green foxtail (Setaria viridis), Italian ryegrass (Lolium multiflorum), wheat (Triticum aestivum), wild oat (Avena fatua), deadnettle (henbit deadnettle, Lamium amplexicaule), galium (catchweed bedstraw, Galium aparine), bermudagrass (Cynodon dactylon), Surinam grass (Brachiaria decumbens), cocklebur (Xanthium strumarium), corn (Zea mays), large crabgrass (Digitaria sanguinalis), woolly cupgrass (Eriochloa villosa), giant foxtail (Setaria faberii), goosegrass (Eleusine indica), johnsongrass (Sorghum halepense), kochia (Kochia scoparia), lambsquarters (Chenopodium album), morningglory (Ipomoea coccinea), nightshade (eastern black nightshade, Solanum ptycanthum), yellow nutsedge (Cyperus esculentus), pigweed (Amaranthus retroflexus), ragweed (common ragweed, Ambrosia elatior), Russian thistle (Salsola kali), soybean (Glycine max), sunflower (common oilseed sunflower, Helianthus annuus) and velvetleaf (Abutilon theophrasti) were planted into a blend of loam soil and sand and treated preemergence with test compounds formulated in a non-phytotoxic solvent mixture which included a surfactant.
(§2) At the same time, plants selected from these crop and weed species and also winter barley (Hordeum vulgare), canarygrass (Phalaris minor), chickweed (Stellaria media) and windgrass (Apera spica-venti) were planted in pots containing Redi-Earth® planting medium (Scotts Company, 14111 Scottslawn Road, Marysville, Ohio 43041) comprising spaghnum peat moss, vermiculite, wetting agent and starter nutrients and treated with postemergence applications of some of the test chemicals formulated in the same manner. Plants ranged in height from 2 to 18 cm (1- to 4-leaf stage) for postemergence treatments.
(§3) Treated plants and controls were maintained in a greenhouse for 13 to 15 days, after which time all treated plants were visually evaluated and compared to controls. Plant response ratings, summarized in Table B, are based on a scale of 0 to 100 where 0 is no effect and 100 is complete control. A dash (-) response means no test result.

[2] = tested on: Italian ryegrass (Lolium multiflorum)
Source text: as §1, §2, §3

[3] = tested on: bermudagrass (Cynodon dactylon)
Source text: as §1, §2, §3

[4] = tested on: wheat (Triticum aestivum)
Source text: as §1, §2, §3

[5] = tested on: yellow nutsedge (Cyperus esculentus)
Source text: as §1, §2, §3

[6] = tested on: cocklebur (Xanthium strumarium)
Source text: as §1, §2, §3

[7] = tested on: woolly cupgrass (Eriochloa villosa)
Source text: as §1, §2, §3

[8] = tested on: morningglory (Ipomoea coccinea)
Source text: as §1, §2, §3

kochia (Kochia scoparia) = tested on: kochia (Kochia scoparia)
Source text: as §1, §2, §3

[9] = tested on: velvetleaf (Abutilon theophrasti)
Source text: as §1, §2, §3

soybean (Glycine max) = tested on: soybean (Glycine max)
Source text: as §1, §2, §3

[10] = tested on: large crabgrass (Digitaria sanguinalis)
Source text: as §1, §2, §3

[11] = 250 g ai/ha, Preemergence, 0 to 100 scale
[12] = Postemergence, 31 g ai/ha, scale 0 to 100 (0 no effect, 100 complete control)
[13] = Postemergence, 62 g ai/ha, scale 0 (no effect) to 100 (complete control), 13 to 15 days
[14] = Postemergence, 125 g ai/ha, visual rating after 13 to 15 days, scale 0 (no effect) to 100 (complete control)
[15] = Postemergence, 250 g ai/ha, scale 0 to 100
[16] = Preemergence, 31 g ai/ha, scale 0 to 100 (0 no effect, 100 complete control)
[17] = Preemergence, 62 g ai/ha, scale 0 to 100 (0 no effect, 100 complete control)
[18] = Preemergence, 125 g ai/ha, 0 to 100 scale

## O=C1CCCC(O)=C1C(=O)c1cnc(-c2ccccc2)n(-c2ccccc2F)c1=O [Compound 26]
[1]; [11]
  Plant response rating, Bromegrass, Downy: 10
[1]; [12]
  Plant response rating, Bromegrass, Downy: 10
[1]; [13]
  Plant response rating, Bromegrass, Downy: 15
[1]; [14]
  Plant response rating, Bromegrass, Downy: 20
[1]; [15]
  Bromegrass, Downy plant response rating: 40
[1]; [16]
  Plant response rating, Bromegrass, Downy: 0
[1]; [17]
  Plant response rating, Bromegrass, Downy: 0
[1]; [18]
  Bromegrass, Downy plant response rating: 0
[2]; [11]
  Plant response rating, Ryegrass, Italian: 0
[2]; [12]
  Plant response rating, Ryegrass, Italian: 0
[2]; [13]
  Plant response rating, Ryegrass, Italian: 0
[2]; [14]
  Plant response rating, Ryegrass, Italian: 10
[2]; [15]
  Ryegrass, Italian plant response rating: 45
[2]; [16]
  Plant response rating, Ryegrass, Italian: 0
[2]; [17]
  Plant response rating, Ryegrass, Italian: 0
[2]; [18]
  Ryegrass, Italian plant response rating: 0
[3]; [11]
  Plant response rating, Bermudagrass: 100
[3]; [12]
  Plant response rating, Bermudagrass: 40
[3]; [13]
  Plant response rating, Bermudagrass: 50
[3]; Postemergence, 125 g ai/ha, scale 0 to 100 (0 no effect, 100 complete control), 13 to 15 days
  Plant response rating, Bermudagrass: 60
[3]; [15]
  Bermudagrass plant response rating: 75
[3]; [16]
  Plant response rating, Bermudagrass: 5
[3]; [17]
  Plant response rating, Bermudagrass: 70
[3]; [18]
  Bermudagrass plant response rating: 98
[4]; [11]
  Plant response rating, Wheat: 0
[4]; [12]
  Plant response rating, Wheat: 0
[4]; [13]
  Plant response rating, Wheat: 0
[4]; [14]
  Plant response rating, Wheat: 5
[4]; [15]
  Wheat plant response rating: 30
[4]; [16]
  Plant response rating, Wheat: 0
[4]; [17]
  Plant response rating, Wheat: 0
[4]; [18]
  Wheat plant response rating: 0
[5]; [11]
  Plant response rating, Nutsedge, Yellow: 85
[5]; [12]
  Plant response rating, Nutsedge, Yellow: 30
[5]; [13]
  Plant response rating, Nutsedge, Yellow: 30
[5]; [14]
  Plant response rating, Nutsedge, Yellow: 35
[5]; [15]
  Nutsedge, Yellow plant response rating: 35
[5]; [16]
  Plant response rating, Nutsedge, Yellow: 10
[5]; [17]
  Plant response rating, Nutsedge, Yellow: 50
[5]; [18]
  Nutsedge, Yellow plant response rating: 50
[6]; [11]
  Plant response rating, Cocklebur: 98
[6]; [12]
  Plant response rating, Cocklebur: 80
[6]; [13]
  Plant response rating, Cocklebur: 80
[6]; [14]
  Plant response rating, Cocklebur: 95
[6]; [15]
  Cocklebur plant response rating: 100
[6]; [16]
  Plant response rating, Cocklebur: 10
[6]; [17]
  Plant response rating, Cocklebur: 40
[6]; [18]
  Cocklebur plant response rating: 85
[7]; [11]
  Plant response rating, Cupgrass, Woolly: 85
[7]; [12]
  Plant response rating, Cupgrass, Woolly: 40
[7]; [13]
  Plant response rating, Cupgrass, Woolly: 40
[7]; [14]
  Plant response rating, Cupgrass, Woolly: 85
[7]; [15]
  Cupgrass, Woolly plant response rating: 85
[7]; [16]
  Plant response rating, Cupgrass, Woolly: 0
[7]; [17]
  Plant response rating, Cupgrass, Woolly: 5
[7]; [18]
  Cupgrass, Woolly plant response rating: 50
[8]; [11]
  Plant response rating, Morningglory: 100
[8]; [12]
  Plant response rating, Morningglory: 50
[8]; [13]
  Plant response rating, Morningglory: 50
[8]; [14]
  Plant response rating, Morningglory: 75
[8]; [15]
  Morningglory plant response rating: 75
[8]; [16]
  Plant response rating, Morningglory: 100
[8]; [17]
  Plant response rating, Morningglory: 100
[8]; [18]
  Morningglory plant response rating: 100
Kochia (Kochia scoparia); [11]
  Plant response rating, Kochia: 100
Kochia (Kochia scoparia); [16]
  Plant response rating, Kochia: 80
Kochia (Kochia scoparia); [17]
  Plant response rating, Kochia: 100
Kochia (Kochia scoparia); [18]
  Kochia plant response rating: 100
[9]; [11]
  Plant response rating, Velvetleaf: 100
[9]; [12]
  Plant response rating, Velvetleaf: 70
[9]; [13]
  Plant response rating, Velvetleaf: 70
[9]; [14]
  Plant response rating, Velvetleaf: 95
[9]; [15]
  Velvetleaf plant response rating: 98
[9]; [16]
  Plant response rating, Velvetleaf: 50
[9]; [17]
  Plant response rating, Velvetleaf: 90
[9]; [18]
  Velvetleaf plant response rating: 100
Soybean (Glycine max); [11]
  Plant response rating, Soybean: 90
Soybean (Glycine max); [12]
  Plant response rating, Soybean: 95
Soybean (Glycine max); [13]
  Plant response rating, Soybean: 95
Soybean (Glycine max); [14]
  Plant response rating, Soybean: 95
Soybean (Glycine max); [15]
  Soybean plant response rating: 98
Soybean (Glycine max); [16]
  Plant response rating, Soybean: 50
Soybean (Glycine max); [17]
  Plant response rating, Soybean: 60
Soybean (Glycine max); [18]
  Soybean plant response rating: 80
[10]; [11]
  Plant response rating, Crabgrass, Large: 100
[10]; [12]
  Plant response rating, Crabgrass, Large: 40
[10]; [13]
  Plant response rating, Crabgrass, Large: 50
[10]; [14]
  Plant response rating, Crabgrass, Large: 50
[10]; [15]
  Crabgrass, Large plant response rating: 80
[10]; [16]
  Plant response rating, Crabgrass, Large: 0
[10]; [17]
  Plant response rating, Crabgrass, Large: 40
[10]; [18]
  Crabgrass, Large plant response rating: 100

## Cc1cc(C)cc(-n2c(-c3ccccc3)ncc(C(=O)C3=C(O)CCCC3=O)c2=O)c1 [Compound 33]
[1]; [11]
  Plant response rating, Bromegrass, Downy: 30
[1]; [12]
  Plant response rating, Bromegrass, Downy: 5
[1]; [13]
  Plant response rating, Bromegrass, Downy: 5
[1]; [14]
  Plant response rating, Bromegrass, Downy: 10
[1]; [15]
  Bromegrass, Downy plant response rating: 20
[1]; [16]
  Plant response rating, Bromegrass, Downy: 0
[1]; [17]
  Plant response rating, Bromegrass, Downy: 0
[1]; [18]
  Bromegrass, Downy plant response rating: 5
[2]; [11]
  Plant response rating, Ryegrass, Italian: 5
[2]; [13]
  Plant response rating, Ryegrass, Italian: 10
[2]; [14]
  Plant response rating, Ryegrass, Italian: 40
[2]; [16]
  Plant response rating, Ryegrass, Italian: 0
[2]; [17]
  Plant response rating, Ryegrass, Italian: 0
[2]; [18]
  Ryegrass, Italian plant response rating: 5
[3]; [11]
  Plant response rating, Bermudagrass: 100
[3]; [12]
  Plant response rating, Bermudagrass: 75
[3]; [13]
  Plant response rating, Bermudagrass: 95
[3]; [14]
  Plant response rating, Bermudagrass: 98
[3]; [15]
  Bermudagrass plant response rating: 98
[3]; [16]
  Plant response rating, Bermudagrass: 98
[3]; [17]
  Plant response rating, Bermudagrass: 100
[3]; [18]
  Bermudagrass plant response rating: 100
[4]; [11]
  Plant response rating, Wheat: 5
[4]; [13]
  Plant response rating, Wheat: 0
[4]; [14]
  Plant response rating, Wheat: 5
[4]; [16]
  Plant response rating, Wheat: 0
[4]; [17]
  Plant response rating, Wheat: 0
[4]; [18]
  Wheat plant response rating: 0
[5]; [11]
  Plant response rating, Nutsedge, Yellow: 90
[5]; [13]
  Plant response rating, Nutsedge, Yellow: 50
[5]; [14]
  Plant response rating, Nutsedge, Yellow: 75
[5]; [16]
  Plant response rating, Nutsedge, Yellow: 0
[5]; [17]
  Plant response rating, Nutsedge, Yellow: 45
[5]; [18]
  Nutsedge, Yellow plant response rating: 70
[6]; [11]
  Plant response rating, Cocklebur: 90
[6]; [12]
  Plant response rating, Cocklebur: 85
[6]; [13]
  Plant response rating, Cocklebur: 90
[6]; [14]
  Plant response rating, Cocklebur: 95
[6]; [15]
  Cocklebur plant response rating: 95
[6]; [16]
  Plant response rating, Cocklebur: 25
[6]; [17]
  Plant response rating, Cocklebur: 80
[6]; [18]
  Cocklebur plant response rating: 85
[7]; [11]
  Plant response rating, Cupgrass, Woolly: 85
[7]; [12]
  Plant response rating, Cupgrass, Woolly: 65
[7]; [13]
  Plant response rating, Cupgrass, Woolly: 65
[7]; [14]
  Plant response rating, Cupgrass, Woolly: 70
[7]; [15]
  Cupgrass, Woolly plant response rating: 90
[7]; [16]
  Plant response rating, Cupgrass, Woolly: 10
[7]; [17]
  Plant response rating, Cupgrass, Woolly: 50
[7]; [18]
  Cupgrass, Woolly plant response rating: 60
[8]; [11]
  Plant response rating, Morningglory: 90
[8]; [13]
  Plant response rating, Morningglory: 60
[8]; [14]
  Plant response rating, Morningglory: 80
[8]; [16]
  Plant response rating, Morningglory: 0
[8]; [17]
  Plant response rating, Morningglory: 15
[8]; [18]
  Morningglory plant response rating: 70
Kochia (Kochia scoparia); [13]
  Plant response rating, Kochia: 80
Kochia (Kochia scoparia); [14]
  Plant response rating, Kochia: 95
Kochia (Kochia scoparia); [15]
  Kochia plant response rating: 98
[9]; [11]
  Plant response rating, Velvetleaf: 100
[9]; [13]
  Plant response rating, Velvetleaf: 90
[9]; [14]
  Plant response rating, Velvetleaf: 98
[9]; [16]
  Plant response rating, Velvetleaf: 80
[9]; [17]
  Plant response rating, Velvetleaf: 90
[9]; [18]
  Velvetleaf plant response rating: 100
Soybean (Glycine max); [11]
  Plant response rating, Soybean: 75
Soybean (Glycine max); [13]
  Plant response rating, Soybean: 98
Soybean (Glycine max); [14]
  Plant response rating, Soybean: 98
Soybean (Glycine max); [16]
  Plant response rating, Soybean: 60
Soybean (Glycine max); [17]
  Plant response rating, Soybean: 60
Soybean (Glycine max); [18]
  Soybean plant response rating: 65
[10]; [11]
  Plant response rating, Crabgrass, Large: 100
[10]; [12]
  Plant response rating, Crabgrass, Large: 75
[10]; [13]
  Plant response rating, Crabgrass, Large: 85
[10]; [14]
  Plant response rating, Crabgrass, Large: 90
[10]; [15]
  Crabgrass, Large plant response rating: 98
[10]; [16]
  Plant response rating, Crabgrass, Large: 85
[10]; [17]
  Plant response rating, Crabgrass, Large: 98
[10]; [18]
  Crabgrass, Large plant response rating: 100
